Experimental data as given in patent publication US5500429A, “Calcium uptake inhibitors” (Merrell Pharmaceuticals Inc., priority 1993, dated 1996).

How the values were obtained:
[1] = test system: Rat PMNL (intracellular calcium); experiment: Measurement of Intracellular Calcium (Fura-2) in fMLP-stimulated rat PMNL; type: cell-based; conditions: for suppression of the second wave of intracellular calcium changes: fMLP-stimulated PMNL, preincubation with compound, FIG. 1
Procedure: Rat PMNL were obtained from exudates resulting from peritoneal injection of 6 mL of 8% sodium caseinate. Eighteen hours after injection rats were killed by carbon dioxide inhalation and the peritoneal cavity lavaged with Hank's balanced salt solution (HBSS). After concentration of the PMNL by centrifugation, contaminating erythrocytes were removed by hypotonic lysis. The PMNL were then washed twice by centrifugation (400×g for 10 minutes) and resuspended in HBSS. Cell viability was greater than 90% by Trypan Blue exclusion and greater than 90% of the cells were PMNL by Wright-Giemsa stain.
Intracellular calcium levels were obtained using Fura-2 as fluorescent indicator (Grynkiewicz et al., 1985). Fura-2 was loaded into PMNL as the acetoxymethyl ester (Fura-2/AM) using the method of Korchak et al., (1988). Specifically, 1×10^8 PMNL/mL were incubated in HBSS with 10 μM Fura-2/AM for 10 minutes at 37° C. The cells suspension was then diluted ten fold with HBSS and further incubated for another 20 minutes. The cells were then centrifuged (400×g for 8 minutes at 25° C.) and the PMNL (1×10^7 cells/mL) resuspended in HBSS containing 1% bovine serum albumin. Cells were stored at room temperature and used within 3 hours.
Intracellular calcium level determinations were made using a dual wavelength spectrofluorometer (Photon Technology International, New Brunswick, N.J.). Two mL of PMNL suspension (1×10^7 cells/mL) were stirred magnetically at 37° C. Cells were preincubated with the compounds for 15 minutes at 37° C. prior to activation. Where compounds were dissolved in DMSO and added directly, the DMSO never exceeded 0.3% in the final cell suspension. Total change in volume with addition of compounds or vehicle and stimuli never exceeded 3%. Intracellular calcium concentrations were calibrated by setting a maximum calcium level in the cells with the addition of 7 uM ionomycin to PMNL in HBSS containing 1% BSA. This was followed by treatment with 20 mM EGTA for 1 hour to obtain a minimum calcium level. […]

[2] = test system: Sprague Dawley rats, carrageenin-induced paw edema; experiment: Carrageenin Induced Rat Paw Edema; type: in vivo; conditions: i.p, one hour prior to carrageenin; read 3 hours after
Procedure: Charles River male Sprague Dawley rats weighing 90 to 100 grams were used. Inflammation of the left hind paw was induced by a 1% carrageenin solution (0.05 cc), injected into the plantar surface of the paw. The contralateral paw was injected with an equal volume of saline. Drugs were administered orally or i.p. (1 cc/100 grams) one hour prior to paw injection. Three hours following the carrageenin injection the difference in volume of the control and inflamed paw was measured. Each paw was immersed in a well of mercury and the volume of mercury displaced was recorded. Paws were uniformly dipped into the mercury up to the beginning of the hairline. A venous pressure transducer, coupled to an oscillographic recorder, was employed to measure the small volumes of mercury displaced. Each group measurement consists of the average of four rats, each with three separate measurements.

[3] = test system: Lewis rats, adjuvant-induced arthritis; experiment: Lewis Rat Adjuvant-Induced Arthritis Model; type: in vivo
Procedure: Female inbred Lewis rats (Charles River) weighing 150-200 grams were injected intradermally in the tail with either 0.1 mL of Mycobacterium butyricum (Difco) in mineral oil (5 mg.mL) or with mineral oil alone. Starting on the day of innoculation and for 32 days, paw edema was determined for right and left hind limbs using the mercury displacemnt method. From day 1 some animals were treated with 30 mg/Kg p.o. MDL 29,355 once daily.

[4] = test system: Sprague-Dawley rats, Arthus reaction; experiment: Arthus Reaction in Rat Skin; type: in vivo
Procedure: Anesthetized male Sprague-Dawley rats (Charles River) weighing 200-250 grams received 100 mg/Kg i.v. sterile bovine serum albumin (BSA) solution (5 mg/mL). immediately after injection, the animals received an intradermal injection of 100 ug of rabbit anit-BSA in saline. This produces an immune complex mediated inflammation (Arthus reaction) where immune complexes fix complement releasing factors that attract neutrophils. The neutrophils then are activated causing local tissue damage as manifested in a hemorrhagic spot. The extent of the reaction is reflected in the size of the spot as measured by image analysis techniques.

## CN(C)c1ccc(C(=O)C=Cc2ccncc2)cc1 [MDL 101,240, 1-(4-dimethylaminophenyl)-3-(4-pyridinyl)-2-propene-1-one]
[1]; MDL 101,240 vs MDL 29,355, fMLP stimulus
  relative inhibition of the second phase (calcium uptake): stronger inhibition for MDL 101,240 than for MDL 29,355
[1]
  suppression of the second wave of intracellular calcium changes: selective concentration-dependent suppression of the second wave of intracellular calcium changes

## O=C(C=Cc1ccncc1)c1ccccc1 [MDL 29,355, 1-phenyl-3-(4-pyridinyl)-2-propene-1-one]
[2]
  % Inhibition of carrageenin-induced paw edema: 51.4 ± 8.5%
[3]; 30 mg/Kg p.o. once daily from day 1, day 20
  paw swelling reduction, day 20: 36.4% ±16.6%
[3]; 30 mg/Kg p.o. once daily from day 1, day 32, not significantly different from untreated controls
  paw swelling inhibited, day 32: 30.9%±22.4%
[3]; 30 mg/Kg p.o. once daily, all control animals displayed arthritis
  animals never displaying adjuvant arthritis: one of the 3 treated animals never displayed adjuvant arthritis
[4]; i.p. 100 mg/Kg, 30 minutes before Arthus reaction
  hemorrhagic spot size reduction: 55.0%±16.8%
[4]; intradermal 100ug with the antibody
  hemorrhagic spot size reduction: 41.7% ±12.5%
[1]
  suppression of the second wave of intracellular calcium changes: selective concentration-dependent suppression of the second wave of intracellular calcium changes
